From PubChem BioAssay (NCI)
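Interpolation was linear, between the two tested concentrations surrounding the appropriate level; five concentrations were tested over 48 hours in 96-well plates. TGI marks complete inhibition of growth.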

Legend:
Assay in all cases: NCI-60 cell line screen, 48 h
RXF 393 renal = system: RXF 393 renal
TK-10 renal = system: TK-10 renal
COLO 205 colon = system: COLO 205 colon
DLD-1 colon = system: DLD-1 colon
SK-MEL-2 melanoma = system: SK-MEL-2 melanoma
KM20L2 colon = system: KM20L2 colon
SK-MEL-5 melanoma = system: SK-MEL-5 melanoma
NCI-H226 lung = system: NCI-H226 lung
HOP-92 NSCLC = system: HOP-92 NSCLC
DMS 273 small cell lung = system: DMS 273 small cell lung
K-562 leukemia = system: K-562 leukemia
DMS 114 small cell lung = system: DMS 114 small cell lung
CCRF-CEM leukemia = system: CCRF-CEM leukemia
LXFL 529 NSCLC = system: LXFL 529 NSCLC
CAKI-1 renal = system: CAKI-1 renal
786-0 renal = system: 786-0 renal
HT29 colon = system: HT29 colon
UACC-257 melanoma = system: UACC-257 melanoma
SK-OV-3 ovarian = system: SK-OV-3 ovarian
SNB-78 CNS = system: SNB-78 CNS
M14 melanoma = system: M14 melanoma
OVCAR-4 ovarian = system: OVCAR-4 ovarian
NCI-H522 lung = system: NCI-H522 lung
OVCAR-3 ovarian = system: OVCAR-3 ovarian
HL-60(TB) leukemia = system: HL-60(TB) leukemia
LOX IMVI melanoma = system: LOX IMVI melanoma
HCT-15 colon = system: HCT-15 colon
SN12C renal = system: SN12C renal
IGROV1 ovarian = system: IGROV1 ovarian
RPMI-8226 leukemia = system: RPMI-8226 leukemia
OVCAR-5 ovarian = system: OVCAR-5 ovarian
UACC-62 melanoma = system: UACC-62 melanoma
EKVX NSCLC = system: EKVX NSCLC
MALME-3M melanoma = system: MALME-3M melanoma
RXF-631 renal = system: RXF-631 renal
NCI-H460 lung = system: NCI-H460 lung
NCI-H23 lung = system: NCI-H23 lung
SNB-75 CNS = system: SNB-75 CNS
HOP-62 NSCLC = system: HOP-62 NSCLC
A498 renal = system: A498 renal
OVCAR-8 ovarian = system: OVCAR-8 ovarian
SF-268 CNS = system: SF-268 CNS
SF-295 CNS = system: SF-295 CNS
SNB-19 CNS = system: SNB-19 CNS
HCT-116 colon = system: HCT-116 colon
M19-MEL melanoma = system: M19-MEL melanoma
UO-31 renal = system: UO-31 renal
MOLT-4 leukemia = system: MOLT-4 leukemia
SW-620 colon = system: SW-620 colon
A549 NSCLC = system: A549 NSCLC
XF 498 CNS = system: XF 498 CNS
SK-MEL-28 melanoma = system: SK-MEL-28 melanoma
SF-539 CNS = system: SF-539 CNS
ACHN renal = system: ACHN renal
HCC-2998 colon = system: HCC-2998 colon
KM12 colon = system: KM12 colon
U251 CNS = system: U251 CNS
HOP-18 NSCLC = system: HOP-18 NSCLC
SR leukemia = system: SR leukemia

Measured: TGI

CCOC(=O)c1ccc(N=Cc2ccc(N(CCC#N)CCC#N)cc2)cc1
> 100 µM: RXF 393 renal | TK-10 renal | COLO 205 colon | DLD-1 colon | SK-MEL-2 melanoma | KM20L2 colon | SK-MEL-5 melanoma | NCI-H226 lung | HOP-92 NSCLC | DMS 273 small cell lung | K-562 leukemia | DMS 114 small cell lung | CCRF-CEM leukemia | LXFL 529 NSCLC | CAKI-1 renal | 786-0 renal | HT29 colon | UACC-257 melanoma | SK-OV-3 ovarian | SNB-78 CNS | M14 melanoma | OVCAR-4 ovarian | NCI-H522 lung | OVCAR-3 ovarian | HL-60(TB) leukemia | LOX IMVI melanoma | HCT-15 colon | SN12C renal | IGROV1 ovarian | RPMI-8226 leukemia | OVCAR-5 ovarian | UACC-62 melanoma | EKVX NSCLC | MALME-3M melanoma | RXF-631 renal | NCI-H460 lung | NCI-H23 lung | SNB-75 CNS | HOP-62 NSCLC | A498 renal | OVCAR-8 ovarian | SF-268 CNS | SF-295 CNS | SNB-19 CNS | HCT-116 colon | M19-MEL melanoma | UO-31 renal | MOLT-4 leukemia | SW-620 colon | A549 NSCLC | XF 498 CNS | SK-MEL-28 melanoma | SF-539 CNS | ACHN renal

CCOC(=O)C(/C(=N/NC(=O)OC)C(=O)Nc1ccc(C(C)=O)cc1)c1cnc2ccccc2n1 (configuration not stated)
> 100 µM: RXF 393 renal | HCC-2998 colon | TK-10 renal | COLO 205 colon | DLD-1 colon | KM20L2 colon | SK-MEL-5 melanoma | NCI-H226 lung | HOP-92 NSCLC | K-562 leukemia | KM12 colon | DMS 114 small cell lung | CCRF-CEM leukemia | LXFL 529 NSCLC | CAKI-1 renal | 786-0 renal | HT29 colon | UACC-257 melanoma | SK-OV-3 ovarian | SNB-78 CNS | M14 melanoma | OVCAR-4 ovarian | NCI-H522 lung | OVCAR-3 ovarian | HL-60(TB) leukemia | LOX IMVI melanoma | HCT-15 colon | SN12C renal | IGROV1 ovarian | OVCAR-5 ovarian | UACC-62 melanoma | EKVX NSCLC | U251 CNS | MALME-3M melanoma | RXF-631 renal | HOP-18 NSCLC | NCI-H460 lung | NCI-H23 lung | SNB-75 CNS | HOP-62 NSCLC | A498 renal | OVCAR-8 ovarian | SF-268 CNS | SF-295 CNS | SNB-19 CNS | HCT-116 colon | M19-MEL melanoma | UO-31 renal | SW-620 colon | A549 NSCLC | SR leukemia | XF 498 CNS | SK-MEL-28 melanoma | SF-539 CNS | ACHN renal

CCOC(=O)C(C(=O)OCC)P(=S)(S)c1ccccc1 (configuration not stated)
> 100 µM: RXF 393 renal | TK-10 renal | COLO 205 colon | DLD-1 colon | SK-MEL-2 melanoma | KM20L2 colon | SK-MEL-5 melanoma | NCI-H226 lung | HOP-92 NSCLC | DMS 273 small cell lung | K-562 leukemia | KM12 colon | DMS 114 small cell lung | CCRF-CEM leukemia | LXFL 529 NSCLC | CAKI-1 renal | 786-0 renal | HT29 colon | UACC-257 melanoma | SK-OV-3 ovarian | OVCAR-4 ovarian | NCI-H522 lung | HL-60(TB) leukemia | LOX IMVI melanoma | SN12C renal | IGROV1 ovarian | OVCAR-5 ovarian | UACC-62 melanoma | EKVX NSCLC | U251 CNS | MALME-3M melanoma | RXF-631 renal | NCI-H460 lung | NCI-H23 lung | HOP-62 NSCLC | A498 renal | OVCAR-8 ovarian | SF-268 CNS | SF-295 CNS | SNB-19 CNS | M19-MEL melanoma | UO-31 renal | MOLT-4 leukemia | SW-620 colon | A549 NSCLC | SR leukemia | XF 498 CNS | SK-MEL-28 melanoma | SF-539 CNS | ACHN renal

CCOC(=O)c1ccc(O)cc1
> 100 µM: RXF 393 renal | HCC-2998 colon | TK-10 renal | COLO 205 colon | DLD-1 colon | SK-MEL-2 melanoma | KM20L2 colon | NCI-H226 lung | HOP-92 NSCLC | DMS 273 small cell lung | K-562 leukemia | KM12 colon | DMS 114 small cell lung | CCRF-CEM leukemia | CAKI-1 renal | 786-0 renal | HT29 colon | UACC-257 melanoma | SK-OV-3 ovarian | SNB-78 CNS | M14 melanoma | OVCAR-4 ovarian | NCI-H522 lung | HL-60(TB) leukemia | LOX IMVI melanoma | HCT-15 colon | IGROV1 ovarian | RPMI-8226 leukemia | OVCAR-5 ovarian | UACC-62 melanoma | EKVX NSCLC | U251 CNS | MALME-3M melanoma | RXF-631 renal | NCI-H460 lung | NCI-H23 lung | SNB-75 CNS | HOP-62 NSCLC | SF-268 CNS | SF-295 CNS | SNB-19 CNS | HCT-116 colon | M19-MEL melanoma | UO-31 renal | MOLT-4 leukemia | SW-620 colon | A549 NSCLC | SR leukemia | XF 498 CNS | SK-MEL-28 melanoma | SF-539 CNS | ACHN renal

O=c1[nH]c(=O)n(C2CC(O)C(CO)O2)cc1/C=C/Br (configuration not stated)
> 100 µM: RXF 393 renal | TK-10 renal | DLD-1 colon | SK-MEL-2 melanoma | KM20L2 colon | SK-MEL-5 melanoma | NCI-H226 lung | HOP-92 NSCLC | DMS 273 small cell lung | K-562 leukemia | KM12 colon | DMS 114 small cell lung | CCRF-CEM leukemia | LXFL 529 NSCLC | CAKI-1 renal | 786-0 renal | HT29 colon | UACC-257 melanoma | SK-OV-3 ovarian | SNB-78 CNS | M14 melanoma | OVCAR-4 ovarian | NCI-H522 lung | HL-60(TB) leukemia | LOX IMVI melanoma | SN12C renal | IGROV1 ovarian | OVCAR-5 ovarian | UACC-62 melanoma | EKVX NSCLC | U251 CNS | MALME-3M melanoma | RXF-631 renal | NCI-H460 lung | NCI-H23 lung | HOP-62 NSCLC | A498 renal | OVCAR-8 ovarian | SF-268 CNS | SF-295 CNS | SNB-19 CNS | M19-MEL melanoma | UO-31 renal | MOLT-4 leukemia | SW-620 colon | A549 NSCLC | SR leukemia | XF 498 CNS | SK-MEL-28 melanoma | SF-539 CNS | ACHN renal
